Source: ChEMBL document CHEMBL1201862, “PubChem BioAssay data set” (2004)
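A five-concentration, 48-hour dose response in 96-well plates underlies each endpoint, interpolated linearly between surrounding concentrations. Here, GI50 denotes the concentration required for 50% inhibition of growth.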 Activity calls are given as the source filed them. Rule as the data show it: active = GI50 up to about 1.1 µM and inactive = higher.

Key:
Test in all cases: NCI anticancer screen, dose series, 48 h
HOP-92 = system: HOP-92
SN12C = system: SN12C
U-251 = system: U-251
K562 = system: K562
MOLT-4 = system: MOLT-4
OVCAR-8 = system: OVCAR-8
SW-620 = system: SW-620
COLO 205 = system: COLO 205
OVCAR-3 = system: OVCAR-3
HOP-62 = system: HOP-62
SNB-19 = system: SNB-19
IGROV-1 = system: IGROV-1
SK-OV-3 = system: SK-OV-3
A549 = system: A549
A498 = system: A498
OVCAR-5 = system: OVCAR-5
NCI-H226 = system: NCI-H226
KM12 = system: KM12
NCI-H522 = system: NCI-H522

For `COc1ccc(C(c2ccc(C(C)C)cc(=O)c2O)c2c(O)cc3oc(-c4ccccc4)cc(=O)c3c2O)cc1` (centres undefined), the GI50 (HOP-92) was < 0.01 µM (active), the GI50 (SN12C) was 16.5 µM (inactive) and the GI50 (U-251) was 6.43 µM (inactive). The GI50 (K562) was 3.03 µM (inactive), the GI50 (MOLT-4) was 5.73 µM (inactive) and the GI50 (OVCAR-8) was 6.9 µM (inactive). For the same compound, the GI50 (SW-620) was 14.5 µM (inactive), the GI50 (COLO 205) was 9.79 µM (inactive) and the GI50 (OVCAR-3) was 5.86 µM (inactive). For the same compound, the GI50 (HOP-62) was 2.07 µM (inactive), the GI50 (SNB-19) was 4.14 µM (inactive) and the GI50 (IGROV-1) was 3.91 µM (inactive). For the same compound, the GI50 (SK-OV-3) was 12.5 µM (inactive), the GI50 (A549) was 3.35 µM (inactive) and the GI50 (A498) was 18.6 µM (inactive).
In the case of `Cc1nc2ccc(C(F)(F)F)cc2nc1Nc1ccc(Cl)c(Cl)c1`, the GI50 (HOP-92) is reported as 3.27 µM (inactive), the GI50 (SN12C) is reported as 11.9 µM (inactive) and the GI50 (U-251) is reported as 6.46 µM (inactive). For the same compound, the GI50 (OVCAR-5) was 15.4 µM (inactive), the GI50 (MOLT-4) was 7 µM (inactive) and the GI50 (OVCAR-8) was 12.8 µM (inactive). The GI50 (SW-620) was 12.7 µM (inactive), the GI50 (COLO 205) was 3.94 µM (inactive) and the GI50 (OVCAR-3) was 12.8 µM (inactive). The GI50 (HOP-62) was 16 µM (inactive), the GI50 (SNB-19) was 14.1 µM (inactive) and the GI50 (SK-OV-3) was 18.9 µM (inactive). The GI50 (A549) was 7.14 µM (inactive) and the GI50 (NCI-H226) was 16.1 µM (inactive).
In the case of `CC1NC(=O)C2=C1C(N)=NC(=O)C2` (centres undefined), the GI50 (KM12) is reported as > 100 µM (inactive), the GI50 (HOP-92) is reported as > 100 µM (inactive) and the GI50 (SN12C) is reported as > 100 µM (inactive). For the same compound, the GI50 (NCI-H522) was > 100 µM (inactive), the GI50 (U-251) was > 100 µM (inactive) and the GI50 (OVCAR-5) was > 100 µM (inactive). For the same compound, the GI50 (K562) was > 100 µM (inactive), the GI50 (MOLT-4) was > 100 µM (inactive) and the GI50 (OVCAR-8) was > 100 µM (inactive). The GI50 (SW-620) was > 100 µM (inactive), the GI50 (COLO 205) was > 100 µM (inactive) and the GI50 (OVCAR-3) was > 100 µM (inactive). For the same compound, the GI50 (SNB-19) was > 100 µM (inactive), the GI50 (IGROV-1) was > 100 µM (inactive) and the GI50 (SK-OV-3) was > 100 µM (inactive). For the same compound, the GI50 (A549) was > 100 µM (inactive) and the GI50 (NCI-H226) was > 100 µM (inactive).
In the case of `N#Cc1ccccc1C(Cl)(Cl)c1cnccn1`, the GI50 (KM12) is reported as 37.8 µM (inactive), the GI50 (HOP-92) is reported as 25.4 µM (inactive) and the GI50 (SN12C) is reported as 74.8 µM (inactive). The GI50 (NCI-H522) was 19.8 µM (inactive), the GI50 (U-251) was 34.8 µM (inactive) and the GI50 (OVCAR-5) was > 100 µM (inactive). For the same compound, the GI50 (K562) was 34.3 µM (inactive), the GI50 (MOLT-4) was 22.6 µM (inactive) and the GI50 (OVCAR-8) was 26.3 µM (inactive). The GI50 (SW-620) was 99.3 µM (inactive), the GI50 (COLO 205) was 46.9 µM (inactive) and the GI50 (HOP-62) was 72.4 µM (inactive). The GI50 (SNB-19) was 56.5 µM (inactive), the GI50 (IGROV-1) was 44.1 µM (inactive) and the GI50 (SK-OV-3) was 61.1 µM (inactive). For the same compound, the GI50 (A549) was 83.9 µM (inactive), the GI50 (NCI-H226) was 36.6 µM (inactive) and the GI50 (A498) was 92.7 µM (inactive).
